What was measured:
[1] = Antiproliferative activity against human alpha-2 cells after 48 hrs by MTT assay; format: functional, cell-based
[2] = system: MDA-MB-231; test: Antiproliferative activity against human MDA-MB-231 cells after 48 hrs by MTT assay; format: functional, cell-based; conditions: MDA-MB-231, 48 h
[3] = Antiproliferative activity against human BGC823 cells after 48 hrs by MTT assay; format: functional, cell-based; conditions: BGC-823, 48 h
[4] = Cytotoxicity against human IOSE-144 cells after 48 hrs by MTT assay; format: cell-based; conditions: IOSE-144, 48 h
[5] = Antiproliferative activity against human DU145 cells after 48 hrs by MTT assay; format: functional, cell-based; conditions: DU-145, 48 h
[6] = Antiproliferative activity against human PC3 cells after 48 hrs by MTT assay; format: functional, cell-based; conditions: PC-3, 48 h

SMILES | IC50 [1] [µM] | IC50 [2] [µM] | IC50 [3] [µM] | IC50 [4] [µM] | IC50 [5] [µM] | IC50 [6] [µM]
C[C@H](N)C(=O)O[C@H]1CC[C@]2(C)[C@H]3C[C@@H](O)[C@@H]4[C@@H]([C@](C)(O)CCCC(C)(C)O)CC[C@@]4(C)[C@]3(C)CC[C@H]2C1(C)C | 11 | 4.8 | 7.9 | > 100 | 8 | 7.6
C[C@H](NC(=O)OC(C)(C)C)C(=O)O[C@H]1CC[C@]2(C)[C@H]3C[C@@H](OC(=O)[C@H](C)NC(=O)OC(C)(C)C)[C@@H]4[C@@H]([C@](C)(O)CCCC(C)(C)O)CC[C@@]4(C)[C@]3(C)CC[C@H]2C1(C)C | 57 | 80 | 81 | > 100 | > 100 | > 100
C[C@H](N)C(=O)O[C@@H]1C[C@@H]2[C@@]3(C)CC[C@H](O)C(C)(C)[C@@H]3CC[C@@]2(C)[C@]2(C)CC[C@H]([C@](C)(O)CCCC(C)(C)O)[C@@H]12 | 9.2 | 5.7 | 9 | > 100 | 14 | 8.8
CC(C)(O)CCC[C@@](C)(O)[C@H]1CC[C@]2(C)[C@@H]1[C@H](O)C[C@@H]1[C@@]3(C)CC[C@H](OC(=O)[C@H](CO)NC(=O)OC(C)(C)C)C(C)(C)[C@@H]3CC[C@]12C | 24 | 18 | 21 | > 100 | 25 | 25
CC[C@H](C)[C@H](NC(=O)OC(C)(C)C)C(=O)O[C@H]1CC[C@]2(C)[C@H]3C[C@@H](O)[C@@H]4[C@@H]([C@](C)(O)CCCC(C)(C)O)CC[C@@]4(C)[C@]3(C)CC[C@H]2C1(C)C | 36 | 18 | 22 | > 100 | 58 | 24
CC(C)(O)CCC[C@@](C)(O)[C@H]1CC[C@]2(C)[C@@H]1[C@H](OC(=O)[C@H](CCC(=O)OCc1ccccc1)NC(=O)OC(C)(C)C)C[C@@H]1[C@@]3(C)CC[C@H](O)C(C)(C)[C@@H]3CC[C@]12C | 85 | 79 | > 100 | > 100 | > 100 | > 100
C[C@H](NC(=O)OC(C)(C)C)C(=O)O[C@H]1CC[C@]2(C)[C@H]3C[C@@H](O)[C@@H]4[C@@H]([C@](C)(O)CCCC(C)(C)O)CC[C@@]4(C)[C@]3(C)CC[C@H]2C1(C)C | 24 | 17 | 18 | > 100 | 23 | 22
CC(C)C[C@H](NC(=O)OC(C)(C)C)C(=O)O[C@H]1CC[C@]2(C)[C@H]3C[C@@H](OC(=O)[C@H](CC(C)C)NC(=O)OC(C)(C)C)[C@@H]4[C@@H]([C@](C)(O)CCCC(C)(C)O)CC[C@@]4(C)[C@]3(C)CC[C@H]2C1(C)C | 73 | > 100 | > 100 | > 100 | > 100 | > 100
C[C@@H](O)[C@H](N)C(=O)O[C@H]1CC[C@]2(C)[C@H]3C[C@@H](O)[C@@H]4[C@@H]([C@](C)(O)CCCC(C)(C)O)CC[C@@]4(C)[C@]3(C)CC[C@H]2C1(C)C | 12 | 5.4 | 11 | > 100 | 8.7 | 8.9
CC(C)(O)CCC[C@@](C)(O)[C@H]1CC[C@]2(C)[C@@H]1[C@H](O)C[C@@H]1[C@@]3(C)CC[C@H](OC(=O)[C@H](CCC(=O)OCc4ccccc4)NC(=O)OC(C)(C)C)C(C)(C)[C@@H]3CC[C@]12C | 28 | 19 | 23 | > 100 | 54 | 29
CC[C@H](C)[C@H](NC(=O)OC(C)(C)C)C(=O)O[C@@H]1C[C@@H]2[C@@]3(C)CC[C@H](O)C(C)(C)[C@@H]3CC[C@@]2(C)[C@]2(C)CC[C@H]([C@](C)(O)CCCC(C)(C)O)[C@@H]12 | 81 | > 100 | > 100 | > 100 | > 100 | > 100
C[C@H](NC(=O)OC(C)(C)C)C(=O)O[C@@H]1C[C@@H]2[C@@]3(C)CC[C@H](O)C(C)(C)[C@@H]3CC[C@@]2(C)[C@]2(C)CC[C@H]([C@](C)(O)CCCC(C)(C)O)[C@@H]12 | 34 | 46 | 40 | > 100 | > 100 | 49
CC(C)(O)CCC[C@@](C)(O)[C@H]1CC[C@]2(C)[C@@H]1[C@H](O)C[C@@H]1[C@@]3(C)CC[C@H](OC(=O)[C@H](Cc4ccc(O)cc4)NC(=O)OC(C)(C)C)C(C)(C)[C@@H]3CC[C@]12C | 33 | 19 | 37 | > 100 | 34 | 25
CC(C)C[C@H](NC(=O)OC(C)(C)C)C(=O)O[C@H]1CC[C@]2(C)[C@H]3C[C@@H](O)[C@@H]4[C@@H]([C@](C)(O)CCCC(C)(C)O)CC[C@@]4(C)[C@]3(C)CC[C@H]2C1(C)C | 32 | 17 | 24 | > 100 | 26 | 41
C[C@@H](O)[C@H](NC(=O)OC(C)(C)C)C(=O)O[C@H]1CC[C@]2(C)[C@H]3C[C@@H](O)[C@@H]4[C@@H]([C@](C)(O)CCCC(C)(C)O)CC[C@@]4(C)[C@]3(C)CC[C@H]2C1(C)C | 24 | 14 | 22 | > 100 | 25 | 28
CC[C@H](C)[C@H](N)C(=O)O[C@H]1CC[C@]2(C)[C@H]3C[C@@H](O)[C@@H]4[C@@H]([C@](C)(O)CCCC(C)(C)O)CC[C@@]4(C)[C@]3(C)CC[C@H]2C1(C)C | 17 | 6.4 | 10 | > 100 | 14 | 8.4
CC(C)C[C@H](NC(=O)OC(C)(C)C)C(=O)O[C@@H]1C[C@@H]2[C@@]3(C)CC[C@H](O)C(C)(C)[C@@H]3CC[C@@]2(C)[C@]2(C)CC[C@H]([C@](C)(O)CCCC(C)(C)O)[C@@H]12 | 86 | > 100 | > 100 | > 100 | > 100 | > 100
CC(C)(O)CCC[C@@](C)(O)[C@H]1CC[C@]2(C)[C@@H]1[C@H](OC(=O)[C@H](Cc1ccc(O)cc1)NC(=O)OC(C)(C)C)C[C@@H]1[C@@]3(C)CC[C@H](O)C(C)(C)[C@@H]3CC[C@]12C | 84 | 29 | 90 | > 100 | > 100 | 63
CC(C)(O)CCC[C@@](C)(O)[C@H]1CC[C@]2(C)[C@@H]1[C@H](OC(=O)[C@H](Cc1cnc[nH]1)NC(=O)OC(C)(C)C)C[C@@H]1[C@@]3(C)CC[C@H](O)C(C)(C)[C@@H]3CC[C@]12C | 72 | 23 | 38 | > 100 | > 100 | 86
CC(C)(O)CCC[C@@](C)(O)[C@H]1CC[C@]2(C)[C@@H]1[C@H](OC(=O)[C@H](CCC(=O)OCc1ccccc1)NC(=O)OC(C)(C)C)C[C@@H]1[C@@]3(C)CC[C@H](OC(=O)[C@H](CCC(=O)OCc4ccccc4)NC(=O)OC(C)(C)C)C(C)(C)[C@@H]3CC[C@]12C | 61 | 89 | > 100 | > 100 | > 100 | > 100
O=c1[nH]cc(F)c(=O)[nH]1 [FLUOROURACIL] | 33 | 20 | 37 | 29 | 38 | 46
CC(C)(O)CCC[C@@](C)(O)[C@H]1CC[C@]2(C)[C@@H]1[C@H](O)C[C@@H]1[C@@]3(C)CC[C@H](OC(=O)[C@H](CCCNC(=N)N)NC(=O)OC(C)(C)C)C(C)(C)[C@@H]3CC[C@]12C | 13 | 8 | 12 | > 100 | 11 | 12
CC(C)C[C@H](N)C(=O)O[C@H]1CC[C@]2(C)[C@H]3C[C@@H](O)[C@@H]4[C@@H]([C@](C)(O)CCCC(C)(C)O)CC[C@@]4(C)[C@]3(C)CC[C@H]2C1(C)C | 16 | 4.8 | 8.9 | > 100 | 7.6 | 7.9
CC(C)(O)CCC[C@@](C)(O)[C@H]1CC[C@]2(C)[C@@H]1[C@H](O)C[C@@H]1[C@@]3(C)CC[C@H](OC(=O)[C@@H](N)Cc4cnc[nH]4)C(C)(C)[C@@H]3CC[C@]12C | 11 | 5.3 | 12 | > 100 | 9.6 | 10
CC(C)(O)CCC[C@@](C)(O)[C@H]1CC[C@]2(C)[C@@H]1[C@H](O)C[C@@H]1[C@@]3(C)CC[C@H](OC(=O)[C@H](Cc4cnc[nH]4)NC(=O)OC(C)(C)C)C(C)(C)[C@@H]3CC[C@]12C | 20 | 17 | 27 | > 100 | 21 | 28
CC[C@H](C)[C@H](NC(=O)OC(C)(C)C)C(=O)O[C@H]1CC[C@]2(C)[C@H]3C[C@@H](OC(=O)[C@@H](NC(=O)OC(C)(C)C)[C@@H](C)CC)[C@@H]4[C@@H]([C@](C)(O)CCCC(C)(C)O)CC[C@@]4(C)[C@]3(C)CC[C@H]2C1(C)C | 69 | > 100 | > 100 | > 100 | > 100 | > 100

— ChEMBL document CHEMBL3769368, “Semi-synthesis and anti-tumor evaluation of novel 25-hydroxyprotopanaxadiol derivatives as apoptosis inducing agents” (Medchemcomm, 2015)
